# Patent publication US20100196355A1, “Immunophilin Ligands and Methods for Modulating Immunophilin and Calcium Channel Activity” (Wyeth, priority 2007, published 2010)
# Entries after “also recorded” stand apart in the source; their conditions may differ.
# Assays:
# Format in all cases: binding, rat and mouse hybrid
# [1] = molecular target: T1, FKBP52 (Mus musculus, UniProt P30416); experiment: Affinity precipitation from F-11 cell lysate, FT-ICR-MS and Western analysis
# T1 construct: endogenous in cells; host or cells: F-11 cells (rat DRG x mouse neuroblastoma hybrid), lysate
# T1 sequence (P30416 whole entry): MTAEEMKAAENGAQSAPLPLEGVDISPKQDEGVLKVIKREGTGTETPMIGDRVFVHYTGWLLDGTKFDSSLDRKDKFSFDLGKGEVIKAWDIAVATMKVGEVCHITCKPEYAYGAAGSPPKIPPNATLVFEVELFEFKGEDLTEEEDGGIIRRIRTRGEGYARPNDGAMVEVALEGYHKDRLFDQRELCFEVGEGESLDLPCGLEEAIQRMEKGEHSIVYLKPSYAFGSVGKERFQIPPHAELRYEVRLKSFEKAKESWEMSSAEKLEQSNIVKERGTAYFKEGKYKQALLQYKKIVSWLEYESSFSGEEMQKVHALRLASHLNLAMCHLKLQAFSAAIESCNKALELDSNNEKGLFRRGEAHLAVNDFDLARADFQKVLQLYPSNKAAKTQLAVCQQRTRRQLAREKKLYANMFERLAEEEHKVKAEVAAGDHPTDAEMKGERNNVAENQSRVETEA
# Description: (§1) Briefly, the amino group of amino-phenyl-butyric acid (1200 mg) was protected with an allyloxycarbonyl group by treating with diallyldicarbonate ([…]) in dioxane:water (3:1; 50 ml) for 3 h at room temperature.
# (§2) The reaction was quenched with methanol and the ester product was purified by HPLC with a purity of 99% and characterized by MS and NMR. After removing the allyloxycarbonyl group of the ester product (40 mg) by treatment with Pd(PPh3)4 (2 mg) and dimedone (7 mg) in THF (1.2 ml), the amino group of the product was linked to Affigel-10 matrix (4 ml) in the presence of 2% pyridine in THF.
# (§3) F11 cells were grown in culture medium, DMEM supplemented with 10% FBS and 1% pen/Strep, in 75 cm^2 vented flasks in 37° C. incubator with 5% CO2. Cells were harvested at 80% confluence and washed with PBS buffer. Lysis buffer (6 ml; 50 mM Tris, pH 7.4, 250 mM NaCl, 5 mM EDTA, 50 mM NaF, 1 mM Na3VO4, 1% Nonidet P40 (NP40), 0.1% mercaptoethanol and 2% protease inhibitor cocktails) was added to 10^9 cells. Cells were broken by forcing them through a 26-gauge needle, and S-100 supernatant was collected after 15 min centrifugation at 4° C. […] After washes with lysis buffer (2 ml) and then PBS (2 ml), the beads were analyzed on 4-20% SDS-PAGE gel. […] The protein bands (FIG. 3) were cut out and digested with trypsin (0.3 ng) in digestion buffer (30 μl; 0.2% NH4HCO3) at 30° C. overnight. The resulting peptides were purified on C18-resin and submitted for FT-ICR-MS analysis. The FT-ICR-MS data was manually edited and used to search protein databases. The results are shown in FIG. 4 and have the following scores. FK506-binding protein (FKBP52) (P30416, score: 94, expect: 9.6e-05); MS Data of the 59 kDa band: 2753.35; 1710.94; 2215.13; 2363.15; 1298.71; 1215.59; 1000.51; 1000.46; 1790.93; 1381.70; 2746.36; 1316.71; and 1171.60. Voltage dependent L-type calcium channel β1 subunit (Q8R3Z5-03-00-00, score: 133, expect: 1e-09); MS Data of the 52 kDa band: 651.38; 663.39; 779.54; 853.55; 1014.50; 1347.75; 1217.78; 1346.67; 1297.75; 1231.77; 877.52; 853.47; 919.48; 1014.56; 1041.63; 1217.74; 1231.74; 1296.84; 869.58 (major).
# (§4) In another experiment, F11 cells were grown in culture medium, DMEM supplemented with 10% FBS and 1% Pen/Strep, in 75 cm^2 vented flasks in a 37° C. incubator with 5% CO2. Cells were harvested at 80% confluence and washed with PBS buffer. To 3×10^8 cells, lysis buffer (2 ml; 50 mM Tris, pH 7.4, 250 mM NaCl, 5 mM EDTA, 50 mM NaF, 1 mM Na3VO4, 1% Nonidet P40, 0.1% mercaptoethanol and 2% protease inhibitor cocktails) was added, and its S-100 supernatant was collected after 15 min centrifugation at 4° C. […] After wash with lysis buffer (2 ml) and then PBS buffer (2 ml), beads were analyzed by SDS-PAGE. […]
# [2] = molecular target: T2, β1 subunit (CACNB1) of the voltage gated L-type calcium channel (Mus musculus, UniProt Q8R3Z5); experiment: as above
# T2 construct: endogenous in cells; host or cells: F-11 cells (rat DRG x mouse neuroblastoma hybrid), lysate
# T2 sequence (Q8R3Z5 1-479 isoform Q8R3Z5-3): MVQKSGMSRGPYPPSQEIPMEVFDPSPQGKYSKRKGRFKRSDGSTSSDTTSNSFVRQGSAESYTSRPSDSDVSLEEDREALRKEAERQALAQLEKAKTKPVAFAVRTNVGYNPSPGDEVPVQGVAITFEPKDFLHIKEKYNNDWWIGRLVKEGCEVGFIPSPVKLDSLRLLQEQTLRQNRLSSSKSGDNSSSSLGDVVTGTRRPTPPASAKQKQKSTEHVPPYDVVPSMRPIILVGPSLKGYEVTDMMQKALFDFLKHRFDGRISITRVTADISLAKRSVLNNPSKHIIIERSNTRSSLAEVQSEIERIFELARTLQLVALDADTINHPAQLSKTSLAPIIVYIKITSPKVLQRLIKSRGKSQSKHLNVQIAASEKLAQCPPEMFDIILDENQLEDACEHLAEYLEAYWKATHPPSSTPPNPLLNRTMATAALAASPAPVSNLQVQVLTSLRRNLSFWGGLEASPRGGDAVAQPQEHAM
# Description: as §1, §2, §3, §4
# [3] = molecular target: T3, FKBP52-rapamycin analogue I-Ca2+ channel β1 subunit complex (Mus musculus, UniProt P30416+Q8R3Z5); experiment: Co-immunoprecipitation of complex from F11 cell lysate
# T3 construct: endogenous in cells; host or cells: F11 cell lysate
# T3 sequence (P30416 whole entry): as the sequence (P30416 whole entry) above
# T3 sequence (Q8R3Z5 1-479 isoform Q8R3Z5-3): as the sequence (Q8R3Z5 1-479 isoform Q8R3Z5-3) above
# Description: Anti-FKBP52 antibody was added at 1:200 dilution to each aliquot and incubated at 4° C. for 5 h. Protein A beads ([…]) were then added to precipitate the anti-FKBP52-antibody-associated complex. The proteins immunoprecipitated on the beads were washed with PBS buffer, separated on 4-20% SDS-PAGE gel, transferred to PVDF, and immunoblotted with anti-Ca^2+ channel β1 subunit antibody (1:500 dilution) to detect the β1 subunit.
structure (smiles),measurement,setting,value
"CO[C@H]1C[C@@H]2CC[C@@H](C)[C@@](O)(O2)C(=O)C(=O)N2CCCCC2C(=O)O[C@H]([C@H](C)C[C@@H]2CC[C@@H](O)[C@H](OC)C2)CC(=O)[C@H](C)/C=C(\C)[C@@H](O)[C@@H](OC)C(=O)[C@H](C)C[C@H](C)C2CC[C@H](/C=C/1C)ON2c1ccccc1 (stereo partly drawn) [Rapamycin analogue II, 9,27-dihydroxy-3-{2-[4-hydroxy-3-methoxycyclohexyl]-1-methylethyl}-10,21-dimethoxy-6,8,12,14,20,26-hexamethyl-37-phenyl-4,9,10,12,13,14,15,16,17,18,21,22,23,24,25,26,27,32,33,34,34a-henicosahydro-3H-23,27-epoxy-18,15-(epoxyimino)pyrido[2,1-c][1,4]oxazacyclohentriacontine-1,5,11,28,29(6H, 31H)-pentone]",FKBP52 in affinity bead fraction,[1],major targets
same,L-type calcium channel β1 subunit (CACNB1) in affinity bead fraction,[2],major targets
"CO[C@H]1C[C@@H]2CC[C@@H](C)[C@@](O)(O2)C(=O)C(=O)N2CCCCC2C(=O)O[C@H]([C@H](C)C[C@@H]2CC[C@@H](O)[C@H](OC)C2)CC(=O)[C@H](C)/C=C(\C)[C@@H](O)[C@@H](OC)C(=O)[C@H](C)C[C@H](C)C2C=C[C@H](/C=C/1C)ON2c1ccccc1 (stereo partly drawn) [Rapamycin analogue I, 9,27-dihydroxy-3-{2-[4-hydroxy-3-methoxycyclohexyl]-1-methylethyl}-10,21-dimethoxy-6,8,12,14,20,26-hexamethyl-37-phenyl-4,9,10,12,13,14,15,18,21,22,23,24,25,26,27,32,33,34,34a-nonadecahydro-3H-23,27-epoxy-18,15-(epoxyimino)pyrido[2,1-c][1,4]oxazacyclohentriacontine-1,5,11,28,29(6H, 31H)-pentone]",Ca2+ channel β1 subunit co-immunoprecipitated with FKBP52,[3]; 5 μM,large amount
same,Ca2+ channel β1 subunit co-immunoprecipitated with FKBP52,[3]; 50 μM,reduced the amount of precipitated β1 subunit
same,FKBP52 in affinity bead fraction,[1],major targets; also recorded: detected
same,L-type calcium channel β1 subunit (CACNB1) in affinity bead fraction,[2],major targets; also recorded: detected
